Test results: US8470963B2, “Multifunctional compounds for pharmaceutical purposes” (Sku Asset Management GmbH, priority 2006, dated 2013)

Experiments:
Her-2 (human ErbB-2) = Her-2 (human ErbB-2) (Homo sapiens, UniProt P04626); conditions: target Her-2 (human ErbB-2); Karasseva et al, 2002; read-out: Affinity (kD); cited from earlier work
FGF receptor = conditions: target FGF receptor; if multivalent; Maruta et al, 2002; read-out: Affinity (kD); cited from earlier work
hepatoma cells = experiment: Hepatoma solid tumor model in strain 13 guinea pigs: tumor weight and macrophage infiltration; type: in vivo, guinea pig; conditions: compared to control Group 1 (PBS); for numbers of esterase-positive cells in tumors (macrophage infiltration): 1 mg per animal ip on day 5, sacrifice on day 15, non-specific esterase stain; for mean tumor weight: 1 mg per animal ip on day 5, tumors excised and weighed on day 15
Method: Hepatoma cells are propagated by ip (intraperitoneal) passage in weanling strain 13 male guinea pigs (NIH). Single-cell suspensions are prepared by enzymatic digestion as described. Strain 13 male guinea pigs are injected ip with a suspension of approx. 2*10^6 hepatoma cells to produce solid tumors (day 1). Animals are grouped into 4 groups (six animals each) and are given ip injections on day 5: Phosphate-buffered saline (PBS) (Group 1; control); 1 mg peptide NH2-AWYPLPP-COOH per animal (Group 2; binder only); 1 mg peptide fMLP-COOH per animal (Group 3; effector only); 1 mg compound fMLPK-(NH2-AWYPLPP)-GGGK-(NH2-AWYPLPP)-1-COOH per animal (Group 4). Animals are sacrificed on day 15 and tumors are excised and weighed. In addition macrophage infiltration of tumors is evaluated. Therefore, tumors are fixed in phosphate-buffered formalin and embedded in paraffin blocks. Sections (5 μm) are cut and stained for non-specific esterase activity. Esterase-positive cells are quantified with an image analyser (Optomax, Inc.).

[1] = test system: human neuroblastoma cells WAC 2; breast cancer cells MDA-MB-435; conditions: WAC 2 neuroblastoma cells; MDA-MB-435 breast cancer cells; Askoxylakis et al; read-out: Affinity (kD); cited from earlier work
[2] = target: Glucose-regulated protein 78 (GRP78) (Homo sapiens, UniProt P11021); conditions: target GRP78; Arap et al, 2004; read-out: Affinity (kD); cited from earlier work
Glucose-regulated protein 78 (GRP78), sequence (P11021 19-654, species assumed): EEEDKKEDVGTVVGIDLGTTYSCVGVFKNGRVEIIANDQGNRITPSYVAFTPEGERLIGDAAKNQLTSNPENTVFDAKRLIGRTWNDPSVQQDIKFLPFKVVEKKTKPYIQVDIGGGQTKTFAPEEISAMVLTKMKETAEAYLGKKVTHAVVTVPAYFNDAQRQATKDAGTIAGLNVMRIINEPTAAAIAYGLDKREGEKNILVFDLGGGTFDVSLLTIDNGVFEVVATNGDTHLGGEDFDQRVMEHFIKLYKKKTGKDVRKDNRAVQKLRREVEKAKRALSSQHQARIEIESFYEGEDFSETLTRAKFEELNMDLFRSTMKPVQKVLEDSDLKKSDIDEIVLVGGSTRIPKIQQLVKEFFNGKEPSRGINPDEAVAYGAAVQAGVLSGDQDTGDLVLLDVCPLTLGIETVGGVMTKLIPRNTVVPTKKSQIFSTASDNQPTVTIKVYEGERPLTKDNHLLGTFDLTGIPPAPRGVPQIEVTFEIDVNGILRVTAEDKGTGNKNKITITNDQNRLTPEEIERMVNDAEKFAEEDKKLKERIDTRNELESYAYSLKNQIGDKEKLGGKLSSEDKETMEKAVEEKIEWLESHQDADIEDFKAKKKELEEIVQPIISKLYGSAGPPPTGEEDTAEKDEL

EGFR = EGFR (Homo sapiens, UniProt P00533); conditions: target EGFR; Li et al 2005; read-out: Affinity (kD); cited from earlier work
EGFRvIII = EGFRvIII (Homo sapiens, UniProt P00533, DELINS30-297G); conditions: target EGFRvIII; Campa et al 2002; read-out: Affinity (kD); cited from earlier work

With KCCYSL as the substance, how does the Kd (Her-2 (human ErbB-2)) read?
Its Kd is 30000 nM.

With MQLPLAT as the substance, how does the Kd (FGF receptor) read?
Its Kd is 0.25 nM.

With “NH2-AWYPLPP-COOH (H-AWYPLPP-OH) [binder]” as the substance, how does the “numbers of esterase-positive cells in tumors (macrophage infiltration)” value (“numbers of esterase-positive cells” below) (hepatoma cells) read?
Its value is “comparable to Group 1”.

And the mean tumor weight (hepatoma cells)?
Its mean tumor weight is “no or only marginal effect”.

With VPWMEPAYQRFL as the substance, how does the Kd [1] read?
The Kd was 600 nM.

Which Kd [2] does the source give for WDLAWMFRLPVG here?
The Kd was 5 to 50 nM.

Which Kd [2] does the source give for WIFPWIQL here?
Its Kd is 5 to 50 nM.

What does the source list for YHWYGYTPQNVI?
Kd (EGFR): 22 nM; Kd (EGFRvIII): 30 nM

With fMLP-COOH [effector] as the substance, how does the “numbers of esterase-positive cells” value (hepatoma cells) read?
Its value is “slightly increased”.

What about the mean tumor weight (hepatoma cells) of the same substance?
Its mean tumor weight is “no or only marginal effect”.

Which “numbers of esterase-positive cells” value (hepatoma cells) does the source give for “fMLPK-(NH2-AWYPLPP)-GGGK-(NH2-AWYPLPP)-I-COOH [compound]” here?
The value was “significantly increased”.

What about the mean tumor weight (hepatoma cells) of the same substance?
Its mean tumor weight is “significantly decreased”.
